According to patent US11369665B2, “Anti-inflammatory peptides and composition comprising the same” (GemVax & KAEL Co., Ltd., priority 2012, dated 2022):

Legend:
[1] = system: nitric oxide (NO); experiment: NO level analysis (Griess reagent) in LPS-stimulated Raw 264.7 cells; assay type: cell-based
Protocol: (§1) Raw 264.7 macrophage cell (KCBL, 40071) from Korea Cell Bank was maintained in Dulbecco's modified Eagle's medium (DMEM; PAA, Austria) containing 10% fetal bovine serum (FBS; GIBCO®), 100 unit/mL of streptomycin, and penicillin (Gibco Laboratories) at 37° C. with 5% CO2. Raw 264.7 cells were seeded into a 96-well plate at a density of 1×10^6 cells/mL and incubated overnight.
[…] After 30 min incubation of cells with the peptide 50 μL of LPS (to a final concentration of 1 μg/mL) was added, and cells were incubated for additional 24 hr. The experimental sample with the induction of inflammatory response was treated with 1 μg/mL mL lipopolysaccharide (LPS; SIGMA-ALDRICH®, USA) and control sample was treated with phosphate buffered saline (PBS; pH 7.2). The supernatant samples from each condition was collected in eppendorf tubes and subjected to further analysis.
The level of nitric oxide (NO) was measured in Raw 264.7 cell (1×10^6 cell/ml) using Griess reagent system (PROMEGA CORPORATION®, USA). Culture medium of 50 μl was added to a 96-well plate and Griess reagent I (NED) solution and Griess reagent II (Sulfanilamide solution) are added in the same amount. After 10 min incubation of cells with the reagents, the optical density at 540 nm was measured within 30 min using a microplate reader (MOLECULAR DEVICES®, USA). The concentration of NO was calculated by using a standard curve (0˜100 μM) of sodium nitrite.

[2] = system: COX-2; experiment: Western blot of expression level, LPS-stimulated cells; assay type: cell-based; conditions: LPS 1 μg/ml, PEP 1 5 μg/ml
Protocol: as §1
(§2) On the following day, the medium was replaced with fresh medium and 5 μg/mL of peptide (obtained as described in Experiment example 1) was added to the cells. After 30 min incubation of cells with the peptide 50 μL of LPS (to a final concentration of 1 μg/mL) was added, and cells were incubated for additional 24 hr. The experimental sample with the induction of inflammatory response was treated with 1 μg/mL mL lipopolysaccharide (LPS; SIGMA-ALDRICH®, USA) and control sample was treated with phosphate buffered saline (PBS; pH 7.2). The supernatant samples from each condition was collected in eppendorf tubes and subjected to further analysis.
(§3) Protein expression level was determined by Western blot analysis. Cells grown in PEP-1 containing medium were washed with PBS, treated with 0.05% trypsin-EDTA, and collected by centrifugation. The collected cells were dissolved in an appropriate volume of lysis buffer. Intracellular debris was pelleted by centrifugation, and equal amount of protein from each sample was separated by SDS-polyacrylamide gel electrophoresis. The separated protein was transferred to nitrocellulose membrane (Schleicherand Schuell, Keene, N.H., USA), then was tested for the antibody specific for each protein. The membrane was incubated with ECL (enhanced chemiluminoesence) solution ([…]®), exposed to X-ray, and the level of protein expression was analyzed according to the exposure level shown on the X-ray film.

[3] = system: HMGB1; experiment: as above; assay type: cell-based; conditions: LPS 1 μg/ml, PEP 1 5 μg/ml
Protocol: as §1, §2, §3

[4] = system: TNF-α; experiment: as above; assay type: cell-based; conditions: LPS 1 μg/ml, PEP 1 5 μg/ml
Protocol: as §1, §2, §3

[5] = system: cytokines; experiment: qRT-PCR of cytokine levels in THP1 cell line; assay type: cell-based, human; conditions: PMA-differentiated THP-1, LPS 10 ng/ml and 4 μM peptide, 4 hr, FIG. 3
Protocol: As a Human acute monocytic leukemia cell line, THP-1 monocyte cell line ([…] TYPE CULTURE COLLECTION® (Manassas, Va., USA) was used to reconfirm the effects of PEP 1. Cells were grown at a density of 0.5-7×10^5 cells/mL in RPMI 1640 containing 10% FBS, 0.05 mM 2-mercaptoethanol, 100 U/ml penicillin, 100 μg/mL streptomycin, and maintained at 37° C. under 5% CO2. THP-1 cells were differentiated into macrophages by treating cells with phorbol myristate acetate (PMA) at 100 ng/mL for 24 hr at 37° C. for 24 hr.
Following differentiation into macrophages, THP-1 cells were washed two times using complete RPMI 1640 (5 min/wash). Then, cells were treated for 4 hr. with 10 ng/ml LPS and/or 4 μM peptide RIA in FBS free RPMI 1640.
Total RNA samples were isolated from peptide-treated THP-1 cells by using Trizol (QIAZOL®) reagent and, and cDNA was synthesized by reverse transcriptase PCR using reverse transcription PCR kit from PROMEGA CORPORATION® following manufacturer's protocol.
Then, real-Time qPCR was performed using CFX96 (BIO-RAD®) instrument with SYBR® Green qPCR system. Primers used in the experiments are found in Table 5. The PCR cycling conditions were 95° C. for 10 min for activation of HotStart DNA Taq Polymerase, followed by 45 cycles of 95° C. for 10 sec. […] All samples were measured in triplicate and differences in gene expression were calculated using the 2-cycle threshold method. […]

[6] = system: neural stem cells; experiment: Co-treatment amyloid-β and PEP-1: cell mobility (migration); assay type: cell-based, rat; conditions: 20 μM amyloid-β protein
Description: Cell mobility is a vital matter due to the nature of neural stem cell. […] (Refer to FIG. 11).

[7] = system: neural stem cells; experiment: Co-treatment amyloid-β and PEP-1: apoptosis (TUNEL assay); assay type: cell-based, rat; conditions: 20 μM amyloid-β protein, 1 to 100 μM of PEP 1
Protocol: To determine whether PEP 1 has the effect of suppressing the neurotoxicity caused by amyloid-β protein, 20 μM amyloid-β protein and various concentrations of PEP-1 were co-treated for 48 hours. The cell viability and apoptosis were measured using MMT assay, CCK-8 assay, LDH assay and TUNEL assay, and neural stem cell proliferation by BrdU assay.
To confirm the degree of neuronal stem cells damage, TUNEL assay was performed. […] (Refer to FIG. 12)

[8] = system: Bax, GSKβ, Cytochrom-c, caspase-3; experiment: Western blot of apoptotic signals in amyloid-β damaged neural stem cells; assay type: cell-based, rat; conditions: 20 μM amyloid beta, PEP-1 1, 10 and 50 μM, FIGS. 15D, 15G-15I
[9] = target: T1, amyloid-β protein (Homo sapiens, UniProt P05067); experiment: Amyloid-β aggregation; assay type: biochemical
T1 construct: co-treated with 1 μM amyloid beta protein and PEP 1 (0.1, 1 and 10 μM)
Description: In addition, we investigated the response of PEP-1 to the amyloid-β aggregation.

[10] = LPS 1 μg/mL, PEP 1 0.5 μg/mL, 24 hr

T1 sequence (P05067 672-713 limits assumed): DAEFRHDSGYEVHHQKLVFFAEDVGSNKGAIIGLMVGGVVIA

Sequence: EARPALLTSRLRFIPK [PEP-1]
- Decreased NO Expression Level (%) [1, 10]: 65%
- NO Expression Level of control (%) [1, 10]: 35%
- NO level reduced to % of the control ([1]; co-treatment with LPS): 65%
- COX-2 Cytokine Expression Level (band intensity) % of control [2]: 22%
- HMGB1 Cytokine Expression Level (band intensity) % of control [3]: 30%
- TNF-α Cytokine Expression Level (band intensity) % of control [4]: 25%
- cytokines involved in the inflammatory responses (qRT-PCR) [5]: decreased noticeably
- cell mobility decreased by amyloid-β ([6]; FIG. 11): restored
- cell mobility compared to control ([6]; PEP-1 10 μM): increased even more
- neuronal stem cell death (TUNEL) [7]: decreased
- protein expression levels of apoptotic signals Bax, GSKβ, Cytochrom-c, caspase-3 [8]: decreased the protein expression levels
- aggregation of amyloid-β protein during induction ([9]; 1 μM amyloid beta protein co-treated with PEP 1 0.1, 1 and 10 μM, FIG. 16A): inhibited
- amyloid-β protein already induced for aggregation ([9]; FIG. 16B): underwent degradation
